Experimental data: patent US20190106460A1, “BINDING INHIBITORS OF THE BETA. TRANSDUCIN REPEAT-CONTAINING PROTEIN” (priority 2011, published 2019)
Non-standard residues stand in square brackets, D forms with d. Residues, ends and D or L forms follow the SMILES beside them. Groups on a side chain read outwards from the residue. *: point of attachment. X3 = CC(C)CCC[C@@H](C)[C@H]1CCC2C3CC=C4C[C@@H](OC(=O)*)CC[C@]4(C)C3CC[C@@]21C; Benzenesulfonyl(4-OMe) = COc1ccc(S(=O)(=O)*)cc1; Phe(3-F) = N[C@@H](Cc1cccc(F)c1)C(=O)O; Ahx = NCCCCCC(=O)O

System: PNT-1 cell line
Assay: xCELLigence cell growth, non-malignant PNT-1
Type: cell-based
Method: xCELLigence Method • Before starting the experiment add 50 μL of medium (RPMI 1640, 10% fetal bovine serum, 100 units/mL penicillin, 100 ug/mL streptomycin, and 2 mmol/L glutamine, all from GIBCO) to each well of 96 well E-plate (Roche) and place the plate in the xCELLigence platform to measure the background. • LNCaP/PNT-1 cells are seeded (LNCaPs 80000 cells/well; PNT1 3000 cells/well) in the plate in complete medium and equilibrated for 60 mins at RT before returning to the xCELLigence platform and incubating at 37° C./5% CO2. • 24 hrs after seeding, remove 100 μL of medium was removed from each well and cells were treated with compounds or DMSO diluted in 100 μL of OptiMEM (GIBCO). • Replace the plate in the xCELLigence platform • Cells growth can then be monitored in real-time by the cell index profile on the xCELLigence readout screen • Cell growth can be expressed as normalized cell index and doubling time/slope calculated using the RTCA software.
The susceptibility of cancer cell lines versus non-cancer cell lines following treatment with the compounds was also investigated.

COc1ccc(S(=O)(=O)N[C@H](CC(=O)O)C(=O)N[C@@H](CCC(=O)O)C(=O)NCC(=O)N[C@@H](Cc2cccc(F)c2)C(=O)N[C@@H](Cc2c[nH]c3ccccc23)C(=O)N[C@@H](CCC(=O)O)C(=O)NCCCCCC(=O)N[C@@H](CCCCNC(=O)CCCCCNC(=O)O[C@H]2CC[C@@]3(C)C(=CCC4C3CC[C@@]3(C)C4CC[C@@H]3[C@H](C)CCCC(C)C)C2)C(N)=O)cc1 (stereo partly shown) [UBP036, 4-(MeO)PhSO2-dEGF(3F)WE-Ahx-K(Ahx-Chol)-NH2] ({Benzenesulfonyl(4-OMe)}-[dD]EG[Phe(3-F)]WE[Ahx]K([Ahx-X3])-NH2)
cell growth, xCELLigence: far less effect
